In ChEMBL document CHEMBL2424548, “Substrate-based peptidomimetic inhibitors of the Murray Valley encephalitis virus NS2B/NS3 serine protease: a P1-P4 SAR study” (Eur J Med Chem, 2013):
Non-standard residues stand in square brackets, D forms with d. Residues, ends and D or L forms follow the SMILES beside them. *: point of attachment. hArg = N=C(N)NCCCC[C@H](N)C(=O)O; Agmatine = N=C(N)NCCCCN*; Nle = CCCC[C@H](N)C(=O)O

How the values were obtained:
[1] = Chemical stability of the compound at 100 uM after 2 hrs in presence of MVEV NS2B/NS3 protease; format: physicochemical
[2] = Inhibition of Murray Valley encephalitis virus NS2B/NS3 protease using Pyr-RTKR-AMC as substrate after 1 hr by fluorescence assay
[3] = Competitive inhibition of Murray Valley encephalitis virus NS2B/NS3 protease using Pyr-RTKR-AMC as substrate after 1 hr by Lineweaver-Burk plot analysis
[4] = biological target: Prothrombin (Homo sapiens, UniProt P00734); assay: Inhibition of human thrombin after 1 hr by fluorescence assay

Structure (SMILES): N=C(N)N1CCC(CNC(=O)[C@H](CCCCN)NC(=O)[C@H](CCCCN)NC(=O)Cc2cccc(-c3ccccc3)c2)CC1
- Stability [1]: Stable
- IC50 [2]: 4.9 µM
- Ki [3]: 2.5 µM
- IC50 [4]: > 100 µM

Structure (SMILES): CC(=O)N[C@@H](CCCCN)C(=O)N[C@@H](CCCCN)C(=O)NC/C=C/CNC(=N)N
- IC50 [2]: 58.3 µM

Structure (SMILES): CC(=O)N[C@@H](CCCCN)C(=O)N[C@@H](CCCCN)C(=O)NCCCCCNC(=N)N
- IC50 [2]: 75.7 µM

Structure (SMILES): CCCC(=O)N[C@@H](CCCCN)C(=O)N[C@@H](CCCCN)C(=O)NCCCCNC(=N)N
- IC50 [2]: 50.9 µM

Structure (SMILES): CC(=O)N[C@@H](CCCCN)C(=O)N[C@@H](CCCCN)C(=O)N[C@H]1CC[C@@H](NC(=N)N)CC1
- IC50 [2]: > 100 µM

Structure (SMILES): CC(=O)N[C@@H](CCCCN)C(=O)N[C@@H](CCCCN)C(=O)NCCCCNC(N)=O
- IC50 [2]: > 100 µM

Structure (SMILES): Cc1cccc(CC(=O)N[C@@H](CCCCN)C(=O)N[C@@H](CCCCN)C(=O)NCCCCNC(=N)N)c1
- IC50 [2]: 15.7 µM

Structure (SMILES): CC(=O)N[C@@H](CCCCNC(=N)N)C(=O)N[C@@H](CCCCN)C(=O)NCCCCNC(=N)N (Ac-[hArg]-Lys-Agmatine)
- IC50 [2]: 31.4 µM

Structure (SMILES): CC(C)CC(=O)N[C@@H](CCCCN)C(=O)N[C@@H](CCCCN)C(=O)NCCCCNC(=N)N
- IC50 [2]: 69.3 µM

Structure (SMILES): N=C(N)NCCCCNC(=O)[C@H](CCCCN)NC(=O)[C@H](CCCCN)NC(=O)Cc1ccc(Cl)cc1
- IC50 [2]: 14.1 µM

Structure (SMILES): CC(=O)N[C@@H](CCCCN)C(=O)N[C@@H](CCCCN)C(=O)NCCCCCN
- IC50 [2]: > 100 µM

Structure (SMILES): CC(=O)N[C@@H](CCCCN)C(=O)N[C@@H](CCCCN)C(=O)NCC1CCN(C(=N)N)CC1
- IC50 [2]: 9.2 µM

Structure (SMILES): CC(=O)N[C@@H](CCCCN)C(=O)N[C@@H](CCCCN)C(=O)NCC#CCNC(=N)N
- IC50 [2]: 12.7 µM

Structure (SMILES): CCCCNC(=O)[C@H](CCCCN)NC(=O)[C@H](CCCCN)NC(C)=O
- IC50 [2]: > 100 µM

Structure (SMILES): N=C(N)NCCCCNC(=O)[C@H](CCCCN)NC(=O)[C@H](CCCCN)NC(=O)Cc1ccc(-c2ccccc2)cc1
- IC50 [2]: 18.4 µM

Structure (SMILES): CC(=O)N[C@@H](CCCCN)C(=O)N[C@@H](CCCCN)C(=O)NCCCNC(=N)N
- IC50 [2]: > 100 µM

Structure (SMILES): N=C(N)NCCCCNC(=O)[C@H](CCCCN)NC(=O)[C@H](CCCCN)NC(=O)c1ccccc1
- IC50 [2]: 32.3 µM

Structure (SMILES): N=C(N)NCCCCNC(=O)[C@H](CCCCN)NC(=O)[C@@H](N)CCCCN
- IC50 [2]: > 100 µM

Structure (SMILES): CC(=O)N[C@@H](CCCCN)C(=O)N[C@@H](CCCCN)C(=O)NN
- IC50 [2]: > 100 µM

Structure (SMILES): CC(=O)N[C@@H](CCCCN)C(=O)N[C@@H](CCCCN)C(=O)NCCCCCCN
- IC50 [2]: > 100 µM

Structure (SMILES): N=C(N)NCCCCNC(=O)[C@H](CCCCN)NC(=O)[C@H](CCCCN)NC(=O)Cc1cccc(-c2ccccc2)c1
- IC50 [2]: 9.1 µM

Structure (SMILES): N=C(N)NCCCCNC(=O)[C@H](CCCCN)NC(=O)[C@H](CCCCN)NC(=O)Cc1ccccc1Cl
- IC50 [2]: 54 µM

Structure (SMILES): Cc1ccccc1CC(=O)N[C@@H](CCCCN)C(=O)N[C@@H](CCCCN)C(=O)NCCCCNC(=N)N
- IC50 [2]: 60.5 µM

Structure (SMILES): CC(C)C(=O)N[C@@H](CCCCN)C(=O)N[C@@H](CCCCN)C(=O)NCCCCNC(=N)N
- IC50 [2]: 81.7 µM

Structure (SMILES): CCCC[C@H](NC(C)=O)C(=O)N[C@@H](CCCCN)C(=O)NCCCCNC(=N)N (Ac-[Nle]-Lys-Agmatine)
- IC50 [2]: 45.2 µM

Structure (SMILES): CC(=O)N[C@@H](CCCCN)C(=O)N[C@@H](CCCCN)C(=O)NCCCCN
- IC50 [2]: > 100 µM

Structure (SMILES): CCC(=O)N[C@@H](CCCCN)C(=O)N[C@@H](CCCCN)C(=O)NCCCCNC(=N)N
- IC50 [2]: 49.1 µM

Structure (SMILES): CC(C)(C)C(=O)N[C@@H](CCCCN)C(=O)N[C@@H](CCCCN)C(=O)NCCCCNC(=N)N
- IC50 [2]: > 100 µM

Structure (SMILES): N=C(N)NCCCCNC(=O)[C@H](CCCCN)NC(=O)[C@H](CCCCN)NC(=O)Cc1ccccc1
- IC50 [2]: 16.3 µM

Structure (SMILES): CCCC[C@H](NC(=O)[C@H](CCCCN)NC(C)=O)C(=O)NCCCCNC(=N)N (Ac-Lys-[Nle]-Agmatine)
- IC50 [2]: > 100 µM

Structure (SMILES): CC(=O)N[C@@H](CCCCN)C(=O)N[C@@H](CCCCN)C(=O)NCCCCNC(=N)N
- IC50 [2]: 16.8 µM

Structure (SMILES): N=C(N)NCCCCNC(=O)[C@H](CCCCN)NC(=O)[C@H](CCCCN)NC(=O)CCc1ccccc1
- IC50 [2]: 30.7 µM

Structure (SMILES): N=C(N)NCCCCNC(=O)[C@H](CCCCN)NC(=O)[C@H](CCCCN)NC(=O)Cc1cccc(Cl)c1
- IC50 [2]: 53.9 µM

Structure (SMILES): CC(=O)N[C@@H](CCCCN)C(=O)N[C@@H](CCCCNC(=N)N)C(=O)NCCCCNC(=N)N (Ac-Lys-[hArg]-Agmatine)
- IC50 [2]: 79.2 µM

Structure (SMILES): Cc1ccc(CC(=O)N[C@@H](CCCCN)C(=O)N[C@@H](CCCCN)C(=O)NCCCCNC(=N)N)cc1
- IC50 [2]: 15.2 µM

Structure (SMILES): N=C(N)NCCCCNC(=O)[C@H](CCCCN)NC(=O)[C@H](CCCCN)NC(=O)c1cccc2ccccc12
- IC50 [2]: 28.3 µM

Structure (SMILES): N=C(N)NCCCCNC(=O)[C@H](CCCCN)NC(=O)[C@H](CCCCN)NC(=O)c1ccc2ccccc2c1
- IC50 [2]: 24 µM

Structure (SMILES): CC(=O)N[C@@H](CCCCN)C(=O)N[C@@H](CCCCN)C(=O)NC/C=C\CNC(=N)N
- IC50 [2]: > 100 µM
